Literature values, collected in patent US12268699B2, “Transdermal delivery of tetrahydrocannabinol” (Pike Therapeutics Inc., priority 2019, dated 2025).
Like-named read-outs stand apart in the source and are kept apart here.

Legend:
CB2 = CB2 (Homo sapiens, UniProt P34972)
CB1 = CB1 (Homo sapiens, UniProt P21554)
CB2 receptor over CB1 = settings: given as ×, -fold or times
[1] = test system: complete Freund's adjuvant-induced monoarthritic knee join mode; settings: transdermal
[2] = in 96 hrs. with 6% Brij O20

Chain of CB2 (P34972 whole entry, species assumed): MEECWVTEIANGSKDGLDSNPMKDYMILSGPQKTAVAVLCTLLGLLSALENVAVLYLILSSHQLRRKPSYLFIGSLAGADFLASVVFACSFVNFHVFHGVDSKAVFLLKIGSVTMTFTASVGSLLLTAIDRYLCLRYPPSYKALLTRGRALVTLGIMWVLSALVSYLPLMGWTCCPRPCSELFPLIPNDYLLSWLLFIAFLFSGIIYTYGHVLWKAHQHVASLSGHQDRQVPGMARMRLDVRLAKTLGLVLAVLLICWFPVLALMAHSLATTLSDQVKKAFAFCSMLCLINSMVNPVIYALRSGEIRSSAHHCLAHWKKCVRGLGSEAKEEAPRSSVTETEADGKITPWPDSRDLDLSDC
Chain of CB1 (P21554 whole entry, species assumed): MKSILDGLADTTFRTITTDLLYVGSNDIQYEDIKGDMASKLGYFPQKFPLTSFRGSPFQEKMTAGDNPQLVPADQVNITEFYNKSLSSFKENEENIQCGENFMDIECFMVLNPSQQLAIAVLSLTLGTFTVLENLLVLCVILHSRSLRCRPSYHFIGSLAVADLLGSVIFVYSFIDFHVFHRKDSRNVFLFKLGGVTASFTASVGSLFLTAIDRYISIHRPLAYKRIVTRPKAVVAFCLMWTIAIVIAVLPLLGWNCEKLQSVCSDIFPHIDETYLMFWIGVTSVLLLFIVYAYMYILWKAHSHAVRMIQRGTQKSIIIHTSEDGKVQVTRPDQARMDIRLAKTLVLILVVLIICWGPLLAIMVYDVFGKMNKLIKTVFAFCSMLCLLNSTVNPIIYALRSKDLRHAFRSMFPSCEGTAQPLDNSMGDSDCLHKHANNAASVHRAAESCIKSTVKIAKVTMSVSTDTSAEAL

Q: What does the source list for `CCCCCn1cc(C(=O)c2ccc(Cl)c3ccccc23)c2ccccc21` [JWH-398]?
A: Ki (CB2): 2.8 nM; Ki (CB1): 2.3 nM

Q: For `CCCCCCC(C)(C)c1cc(OC)c2c(c1)OC(C)(C)C1CCC(O)CC21` (stereo not drawn) [JWH-350, 11-nor-1-methoxy-3-(1′,1′-dimethylheptyl)-9α-hydroxyhexahydrocannabinol], which “selectivity for CB2 over CB1” value (CB2 receptor over CB1) is on record?
A: Its value is 33.

Q: For `CCCCCn1cc(C(=O)c2cccc3cccc(Br)c23)c2ccccc21` [JWH-424], which Ki (CB2) is on record?
A: Its Ki is 5.44 nM.

Q: What about the Ki (CB1) of the same compound?
A: Its Ki is 20.9 nM.

Q: With `C=C(C)[C@@H]1CCC(C)=C[C@H]1c1c(O)cc(CCCCC)cc1O` [CBD, 2-[(1R,6R)-6-isopropenyl-3-methylcyclohex-2-en-1-yl]-5-pentylbenzene-1,3-diol] as the compound, how does the knee-joint swelling ([1]; dose of 6.2 mg/day) read?
A: The knee-joint swelling was “reduce knee-joint swelling”.

Q: And the knee-joint swelling ([1]; dose of 62 mg/day)?
A: Its knee-joint swelling is “failed to yield any additional improvement”.

Q: For `CCCCCc1cc(O)c2c(c1)OC(C)(C)[C@@H]1CCC(C)=C[C@@H]21` [naturally derived delta-9-THC, (−)-(6aR,10aR)-6,6,9-Trimethyl-3-pentyl-6a,7,8,10a-tetrahydro-6H-benzo[c]chromen-1-ol], which skin permeability [2] is on record?
A: Its skin permeability is 20 µg.

Q: With `CCCn1c(C)c(C(=O)c2ccc(C)c3ccccc23)c2ccccc21` [JWH-148] as the compound, how does the “selectivity for CB2 over CB1” value (CB2 receptor over CB1) read?
A: The value was “more than 8”.

Q: With `CCCn1cc(C(=O)c2ccc(C)c3ccccc23)c2ccccc21` [JWH-120] as the compound, how does the “selectivity for CB2 over CB1” value (CB2 receptor over CB1) read?
A: The value was 173.

Q: With `CCCCCCC(C)(C)c1cc(O)c2c(c1)oc(=O)c1ccc(OC)cc12` [AM-1710] as the compound, how does the “selectivity for CB2 over CB1” value (CB2 receptor over CB1) read?
A: Its value is 54.
